According to US8673620B2, “Radioresistant alga of the Coccomyxa genus” (priority 2010, dated 2014):

Tests used:
[1] = test system: Coccomyxa actinabiotis; test: Extraction of bound metals from the microalgae with 0.1 M EDTA pH 4.5; format: cell-based; details: 0.1 M EDTA pH 4.5, 2 days of exposure
Description: Other experiments were carried out in the presence of a 0.1 M solution of EDTA with a pH of 4.5. Under these conditions, 35% of the ^51Cr contained in the algae, but only 1% of the ^60Co and less than 0.5% of ^108mAg and ^116mAg, are extracted after 2 days of exposure.

[2] = test system: Coccomyxa actinabiotis; test: Extraction of bound metals from the microalgae with water or HCl; format: cell-based
Description: Experiments in which the metals bound by the algae are solubilized were carried out by incubating these algae (70 mg of fresh matter) in 5 ml of demineralized water, or of demineralized water supplemented with HCl at various concentrations. In neutral medium, the metals are not extracted.
The cations most retained are ^60Co, ^108mAg and ^110mAg. They remain bound to the cell for low concentrations of HCl (pH 4.5 to 2.5). They begin to be released exponentially below a threshold pH of 2.5, Co being the most solidly bound since it is at most 35% extracted after 6 days of exposure at pH 0.5, whereas Ag is 90% extracted under the same conditions. At pH 1.5, 10% of Ag and 2% of Co are extracted after 6 days of exposure.

[3] = test system: Coccomyxa actinabiotis; format: cell-based; details: after one day; 250 mg fresh mass of microalgae from BBM culture
Description: Another experiment was carried out by placing 250 mg of fresh mass of microalgae originating from cultures in BBM medium in the presence of […] of demineralized water which has a composition similar to that of the water from the spent fuel storage pools, namely pH 5.5, conductivity 1.2 μS/cm, containing 280 Bq/l of ^60Co, 530 Bq/l of ^58Co, 66 Bq/l of ^110mAg, 1460 Bq/l of ^124Sb, 1180 Bq/l of ^51Cr, 120 Bq/l of ^65Zn, […] and also tritium (260 000 Bq/l) and ^14C (10 000 Bq/l).

[4] = test system: Coccomyxa actinabiotis; test: Transported decontamination of storage pool water, 24 h contact; format: cell-based; details: 50 ml water, 9×10^8 cells (140 mg fresh mass)
Description: Water originating from a spent nuclear element storage pool was brought into contact with Coccomyxae actinabiotis(50 ml of water in contact with 9×10^8 cells, i.e. 140 mg of algae by fresh mass, originating from culture and rinsed beforehand three times with Milli-Q water).
Table V below indicates the initial composition of the water, according to the total γ-activity measured and the γ-activity measured per radionuclide, and the percentage of γ-emitting radionuclides bound by the algae at 24 h.

[5] = test system: Coccomyxa actinabiotis; test: Growth in the presence of cobalt; format: cell-based
Text: However, the Coccomyxa actinabiotis microalga does grow in the presence of 10^−4 mol/l of cobalt.

[6] = test system: Coccomyxa actinabiotis; test: Maximum metal concentrations tolerated (one week exposure to Ag or Co); format: cell-based
Description: The limiting doses supported by Coccomyxa actinabiotis were investigated by exposure of the algae to silver or to cobalt for one week (20 mg of microalgae (fresh mass) in 100 ml of deionized water containing Ag or Co ions at various concentrations).

[7] = test system: Deinococcus radiodurans; details: John et al. 2000; cited from earlier work
[8] = test system: Coccomyxa actinabiotis; test: Exposure to heavy water: respiration and photosynthesis of the algae; format: cell-based; details: 24 h and 48 h in 50%, 80% and 100% D2O in the dark; 24 h light in 50% D2O
[9] = test system: Coccomyxa actinabiotis; test: Kinetics of binding and incorporation of silver by algae with or without mucilage; format: cell-based
Description: Two series of experiments were carried out: one with algae having a coating of mucilage, the thickness of which, evaluated by optical microscopy, is about 1 μm or more (“algae with mucilage”), the other with algae cultured in BBM medium and having little or no mucilage (“algae without mucilage”).
20 mg of algae (compacted fresh mass) and 90 ml of solution of Ag^+ at various concentrations are introduced into Erlenmeyer flasks. The 20 mg of algae are prepared as follows: sample taken from a round-bottomed culture flask, centrifugation for 20 minutes at 3000 rpm, washing twice in demineralized water (suspension, centrifugation). The culture medium is thus removed and there is no risk of it complexing the silver.
The algae without mucilage are brought into contact with solutions containing 0.11 mg/L and 5.5 mg/L of Ag^+.
The algae with mucilage are brought into contact with solutions containing 22 μg/L, 1.1 mg/L and 55 mg/L of Ag^+.
The Erlenmeyer flasks are placed on illuminated shakers and samples of 5 ml are taken for various exposure times in order to monitor the binding kinetics for each of the initial concentrations of silver. The samples are centrifuged for 10 minutes at 4500 rpm in order to separate the algae which have concentrated the metal. The metal content is then analyzed in the pellet (algae) and in the supernatant.

[10] = test system: organisms; details: Ratte 1999; cited from earlier work

## [51Cr] [^51Cr]
[1]
  metal contained in the algae extracted: 35%
[2]; pH 0.5, 6 days of exposure
  metal extracted from algae: ≤ 25%
[3]
  percentage of isotope fixed: 48%

## [Mn] [^54Mn]
[4]
  % binding by the algae: 100%
[3]
  percentage of isotope fixed: 90%

## [58Co] [^58Co]
[3]
  percentage of isotope fixed: 94%

## [60Co] [^60Co]
[1]
  metal contained in the algae extracted: 1%
[4]
  % binding by the algae: 72%
[3]
  percentage of isotope fixed: 94%

## [65Zn] [^65Zn]
[3]
  percentage of isotope fixed: 100%

## [110Ag] [^110mAg]
[4]
  % binding by the algae: 100%
[3]
  percentage of isotope fixed: 100%

## [124Sb] [^124Sb]
[3]
  percentage of isotope fixed: 30%

## [137Cs] [^137Cs]
[4]
  % binding by the algae: 100%

## [U] [^238U]
[4]
  % binding by the algae: 95%

## [Co+2] [cobalt]
[2]; pH 0.5, 6 days of exposure
  metal extracted from algae: at most 35%
[2]; pH 1.5, 6 days of exposure
  metal extracted from algae: 2%
[5]
  cobalt concentration in the presence of which the microalga grows: 10^−4 mol/l
[6]; with mucilage
  cobalt intolerance threshold (Co2+ concentration): > 800 mg/L
[6]; without mucilage
  cobalt intolerance threshold (Co2+ concentration): > 50 mg/L
[7]
  cobalt concentration inhibiting growth: 5 ppm

## [2H]O[2H] [heavy water]
[8]
  effect on respiration and photosynthesis of the algae: no effect

## [Ag] [silver]
[2]; pH 0.5, 6 days of exposure
  metal extracted from algae: 90%
[2]; pH 1.5, 6 days of exposure
  metal extracted from algae: 10%
[9]; algae with mucilage, initial concentration 55 mg/l
  silver bound at the plateau: 20%
[9]; algae without mucilage, initial concentration 5.5 mg/l
  silver bound at the plateau: 75%
[6]; Coccomyxae actinabiotis with mucilage
  extracellular silver concentration withstood: at least 50 mg/L
[6]; Coccomyxae actinabiotis without mucilage
  silver concentration at which algae do not survive: greater than 250 μg/L
[10]
  concentration at which silver is generally toxic: 10^−7-10^−5 mol/l
